Results as given in ChEMBL document CHEMBL1141403, “New adamantane-based spiro 1,2,4-trioxanes orally effective against rodent and simian malaria” (J Med Chem, 2007).
Activity calls are given as the source filed them. No cut-off for these calls is given here.

Tests used:
[1] = tested on: Plasmodium yoelii nigeriensis; assay: Antimalarial activity against Plasmodium yoelii nigeriensis infected Swiss mice (Mus musculus) at 48 mg/kg peroral dose over 4 days; type: functional; conditions: route oral
[2] = tested on: Plasmodium yoelii nigeriensis; assay: Antimalarial activity at day 4 against Plasmodium yoelii nigeriensis infected in Swiss mice (Mus musculus) at 96 mg/kg peroral dose; type: functional; conditions: route oral
[3] = tested on: Plasmodium yoelii nigeriensis; assay: Antimalarial activity against Plasmodium yoelii nigeriensis infected Swiss mice (Mus musculus) at 96 mg/kg intramuscular dose over 4 days; type: functional
[4] = Partition coefficient, log P of the compound; type: physicochemical; conditions: octanol/water
[5] = tested on: Mus musculus; assay: Survival of Swiss mice (Mus musculus) infected with Plasmodium yoelii nigeriensis at 96 mg/kg, intramuscular after 28 days; type: functional, organism-based; design: dose 96 mg/kg
[6] = tested on: Mus musculus; assay: Survival of Swiss mice (Mus musculus) infected with Plasmodium yoelii nigeriensis at 96 mg/kg, peroral after 28 days; type: functional, organism-based; design: dose 96 mg/kg
[7] = tested on: Plasmodium yoelii nigeriensis; assay: Antimalarial activity against Plasmodium yoelii nigeriensis infected Swiss mice (Mus musculus) at 24 mg/kg peroral dose over 4 days; type: functional; conditions: route oral
[8] = tested on: Mus musculus; assay: Survival of Swiss mice (Mus musculus) infected with Plasmodium yoelii nigeriensis at 48 mg/kg, peroral after 28 days; type: functional, organism-based; design: dose 48 mg/kg
[9] = tested on: Mus musculus; assay: Survival of Swiss mice (Mus musculus) infected with Plasmodium yoelii nigeriensis at 24 mg/kg, peroral after 28 days; type: functional, organism-based; design: dose 24 mg/kg
[10] = tested on: Plasmodium cynomolgi; assay: Antimalarial activity against Plasmodium cynomolgi infected Rhesus monkey at 10 mg/kg intramuscular dose over 4 days; type: functional, organism-based; design: dose 10 mg/kg
[11] = tested on: Plasmodium cynomolgi; assay: Antimalarial activity against Plasmodium cynomolgi infected Rhesus monkey at 10 mg/kg peroral dose over 4 days; type: functional; conditions: route oral
[12] = tested on: Plasmodium cynomolgi; assay: Antimalarial activity against Plasmodium cynomolgi infected Rhesus monkey at 20 mg/kg peroral dose after 5 days; type: functional; conditions: route oral

## C=C(c1ccc2ccccc2c1)C1COC2(OO1)C1CC3CC(C1)CC2C3 (stereo not drawn)
[1]
  Activity: 100%
[2]
  Activity: 100%
[3]
  Activity: 71%
[4]
  logP: 5.65
[5]
  Activity: inactive

## C=C(c1cccc2ccccc12)C1COC2(OO1)C1CC3CC(C1)CC2C3 (stereo not drawn)
[1]
  Activity: 100%
[2]
  Activity: 100%
[3]
  Activity: 87%
[4]
  logP: 5.65
[5]
  Activity: inactive
[6]
  Activity: Active

## C=C(c1ccc2c(ccc3ccccc32)c1)C1COC2(OO1)C1CC3CC(C1)CC2C3 (stereo not drawn)
[1]
  Activity: 100%
[2]
  Activity: 100%
[3]
  Activity: 100%
[4]
  logP: 6.65

## C=C(c1ccc2ccc3ccccc3c2c1)C1COC2(OO1)C1CC3CC(C1)CC2C3 (stereo not drawn)
[1]
  Activity: 100%
[2]
  Activity: 100%
[3]
  Activity: 69%
[4]
  logP: 6.65
[5]
  Activity: inactive
[6]
  Activity: Active

## CCO[C@H]1O[C@@H]2O[C@@]3(C)CC[C@H]4[C@H](C)CC[C@@H]([C@H]1C)[C@@]24OO3 [ARTEMOTIL]
[7]
  Activity: 100%
[1]
  Activity: 100%
[8]
  Activity: Active

## C=C(C1COC2(CCCCC2)OO1)C12CC3CC(CC(C3)C1)C2 (stereo not drawn)
[2]
  Activity: 52%
[4]
  logP: 4.79
[5]
  Activity: inactive
[6]
  Activity: inactive

## C=C(c1ccc2c(c1)CCCC2)C1COC2(OO1)C1CC3CC(C1)CC2C3 (stereo not drawn)
[1]
  Activity: 100%
[2]
  Activity: 100%
[3]
  Activity: 100%
[4]
  logP: 5.96
[6]
  Activity: Active

## C=C(c1ccccc1)C1COC2(OO1)C1CC3CC(C1)CC2C3 (stereo not drawn)
[2]
  Activity: 99%
[3]
  Activity: 97%
[4]
  logP: 4.65
[5]
  Activity: inactive
[6]
  Activity: inactive

## C[C@H]1[C@H](OC(=O)CCC(=O)O)O[C@@H]2O[C@@]3(C)CC[C@H]4[C@H](C)CC[C@@H]1[C@@]24OO3 [ARTESUNATE]
[7]
  Activity: 100%
[9]
  Activity: inactive
[1]
  Activity: 100%
[8]
  Activity: Active
[4]
  logP: 3.04

## C=C(C1COC2(CCCC2)OO1)C12CC3CC(CC(C3)C1)C2 (stereo not drawn)
[2]
  Activity: 57%
[3]
  Activity: 38%
[4]
  logP: 4.38
[5]
  Activity: inactive
[6]
  Activity: inactive

## C=C(c1ccc2c(c1)Cc1ccccc1-2)C1COC2(OO1)C1CC3CC(C1)CC2C3 (stereo not drawn)
[7]
  Activity: 100%
[10]
  Activity: inactive
[11]
  Activity: 100%
[1]
  Activity: 100%
[8]
  Activity: Active
[2]
  Activity: 100%
[3]
  Activity: 100%
[12]
  Activity: 100%
[4]
  logP: 6.39
[6]
  Activity: Active

## C=C(C1COC2(OO1)C1CC3CC(C1)CC2C3)C12CC3CC(CC(C3)C1)C2 (stereo not drawn)
[2]
  Activity: 70%
[3]
  Activity: 14%
[4]
  logP: 5.43
[5]
  Activity: inactive
[6]
  Activity: inactive
